Reference: PubChem BioAssay AID1963858 (Molecular Pharmacology Branch, DTP, NCI, 2024)

Tested on: HOP-62 multicell spheroids with HUVEC/MSC, viability
Experiment: Anticancer human tumor HOP-62 cell line growth inhibition [KRAS2];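 also: viability read after a week of compound exposure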;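 as to viability, T/C: 100% = DMSO vehicle-treated spheroids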
Conditions: for viability, T/C: stronger effect = lower value
Excerpt: Multicellular complex tumor spheroid response to RAS pathway inhibitors in combination with a targeted agents in patient-derived cell lines with oncogenic KRAS variants from multiple cancer types
A high-throughput screen of multi-cell type tumor spheroids was designed to identify active combinations of targeted small molecules and KRAS pathway inhibitors. Complex spheroids include a stromal component modeled by human endothelial cells (HUVEC) and fibroblasts modeled by human mesenchymal stem cells (MSCs). The concentration ranges selected for each drug and investigational agent were based upon clinically achievable concentrations if the clinical Cmax of the agent was known.
Compounds. The drugs and investigational agents: BI-3406 (NSC825286), BAY-293 (NSC824723), batoprotafib (TNO155; NSC825523), sotorasib (AMG 510; NSC818433), MRTX1257 (NSC819558), elimusertib (BAY 1895344; NSC800525), molibresib (GSK525762; NSC774829), temuterkib (LY3214996; NSC803410), venetoclax (NSC766270), alisertib (NSC759677), olaparib (NSC753686), talazoparib (NSC767125), erdafitinib (NSC781556), ipatasertib (NSC767898), cabozantinib (NSC761068), nintedanib (NSC756659), abemaciclib (NSC768073), docetaxel (NSC628503), trametinib (NSC758246), and sapanisertib (NSC764658) were obtained from the National Cancer Institute (NCI) Developmental Therapeutics Program Chemical Repository. The FDA-approved anticancer drug set is available from the Developmental Therapeutics Program. […] The stock solutions were prepared in dimethyl sulfoxide (DMSO, Sigma-Aldrich, St. Louis, MO, cat. D2650) at 800-fold the tested concentration and stored at -70 degrees C prior to their use. All drugs and investigational agents were tested over a range starting from a high concentration at or near the clinical Cmax and decreasing in half-log increments. If the clinical Cmax for an agent had not been determined, the highest concentration tested was 10 microM.
Cell Culture. All cells were maintained in an incubator at 37 degrees C and 5% CO2 with 95% humidity. The PDC lines were cultured according to standard operating procedures established by the NCI PDMR (https://pdmr.cancer.gov/sops/default.htm). Briefly, all PDCs were thawed and cultured in Matrigel-coated flasks prepared with a working solution of 1X Ham's F-12 nutrient mix, without supplementation (Invitrogen, Waltham, MA, cat. 11765054), 100 U/mL penicillin-streptomycin (Invitrogen, cat. 15140122), and 2.5% Matrigel (Corning Inc., Corning, NY, cat. 354248) for the first three passages. All PDCs were cultured in complete DMEM/F-12 media containing advanced DMEM/F-12 (Invitrogen, cat. 12634028), 4.9% defined fetal bovine serum, heat inactivated (HyClone Laboratories Inc., Logan, UT, cat. SH30070.03HI), 389 ng/mL hydrocortisone (Sigma-Aldrich, cat. H4001), 9.7 ng/mL human EGF recombinant protein (Invitrogen, cat. PHG0313), 23.4 microg/mL adenine (Sigma-Aldrich, cat. A2786), 97.3 U/mL penicillin-streptomycin (Invitrogen, cat. 15140122), 1.9 mM L-glutamine (Invitrogen, cat. 25030081), and 9.7 microM Y-27632 dihydrochloride (Tocris Bioscience, Bristol, United Kingdom, cat. 1254). The PDCs were cultured in complete DMEM/F12 media without 9.7 microM Y-27632 dihydrochloride for at least two passages prior to the screen. The established cell line HOP-62 was cultured in RPMI 1640 medium, HEPES (Invitrogen, cat. 22400105) with 10% defined fetal bovine serum (HyClone Laboratories Inc., cat. SH30070.03) and 2 mM L-glutamine (Invitrogen, cat. 25030081). The pooled donor HUVEC were cultured in endothelial cell growth medium 2 (PromoCell, Heidelberg, Germany, cat. C-22011) and the hMSC were cultured in mesenchymal stem cell growth medium 2 (PromoCell, cat. C-28009). For all experiments, HUVEC and hMSC were used at passages </=5, while the malignant cell lines were used at passages </=15. […]

[1] = curve of first compound, second compound 0.1 µM
[2] = curve of first compound, second compound 0.316 µM
[3] = curve of first compound, second compound 1 µM
[4] = curve of first compound, second compound 3.16 µM
[5] = curve of first compound, second compound 10 µM
[6] = second compound 0.1 µM, first compound 0.0316 µM
[7] = second compound 0.1 µM, first compound 0.1 µM
[8] = second compound 0.1 µM, first compound 0.316 µM
[9] = second compound 0.1 µM, first compound 1 µM
[10] = second compound 0.1 µM, first compound 3.16 µM
[11] = second compound 0.1 µM, first compound 10 µM
[12] = second compound 0.316 µM, first compound 0.0316 µM
[13] = second compound 0.316 µM, first compound 0.1 µM
[14] = second compound 0.316 µM, first compound 0.316 µM
[15] = second compound 0.316 µM, first compound 1 µM
[16] = second compound 0.316 µM, first compound 3.16 µM
[17] = second compound 0.316 µM, first compound 10 µM
[18] = second compound 1 µM, first compound 0.0316 µM
[19] = second compound 1 µM, first compound 0.1 µM
[20] = second compound 1 µM, first compound 0.316 µM
[21] = second compound 1 µM, first compound 1 µM
[22] = second compound 1 µM, first compound 3.16 µM
[23] = second compound 1 µM, first compound 10 µM
[24] = second compound 3.16 µM, first compound 0.0316 µM
[25] = second compound 3.16 µM, first compound 0.1 µM
[26] = second compound 3.16 µM, first compound 0.316 µM
[27] = second compound 3.16 µM, first compound 1 µM
[28] = second compound 3.16 µM, first compound 3.16 µM
[29] = second compound 3.16 µM, first compound 10 µM
[30] = second compound 10 µM, first compound 0.0316 µM
[31] = second compound 10 µM, first compound 0.1 µM
[32] = second compound 10 µM, first compound 0.316 µM
[33] = second compound 10 µM, first compound 1 µM
[34] = second compound 10 µM, first compound 3.16 µM
[35] = second compound 10 µM, first compound 10 µM

Compound | IC50 [1] [nM] | IC50 [2] [nM] | IC50 [3] [nM] | IC50 [4] [nM] | viability, T/C [6] [%] | viability, T/C [7] [%] | viability, T/C [8] [%] | viability, T/C [9] [%] | viability, T/C [10] [%] | viability, T/C [11] [%] | viability, T/C [12] [%] | viability, T/C [13] [%] | viability, T/C [14] [%] | viability, T/C [15] [%] | viability, T/C [16] [%] | viability, T/C [17] [%] | viability, T/C [18] [%] | viability, T/C [19] [%] | viability, T/C [20] [%] | viability, T/C [21] [%] | further results
CCNC(=O)CC1N=C(c2ccc(Cl)cc2)c2cc(OC)ccc2-n2c(C)nnc21 (configuration not stated) + CNCc1ccccc1-c1csc(C(C)Nc2nc(C)nc3cc(OC)c(OC)cc23)c1 | 438 | 245 | 136 | < 31.6 | 103 | 74.4 | 52.3 | 43.1 | 37.3 | 35.1 | 92.3 | 72 | 44.7 | 30.9 | 33.6 | 32.6 | 86 | 54.3 | 38.2 | 29.7 | IC50 [5]: < 31.6 nM; viability, T/C [22]: 28.1%; viability, T/C [23]: 28.6%; viability, T/C [24]: 0.15%; viability, T/C [25]: 0.21%; viability, T/C [26]: 0.07%; viability, T/C [27]: 0.06%; viability, T/C [28]: 0.06%; viability, T/C [29]: 0.13%; viability, T/C [30]: 0.1%; viability, T/C [31]: 0.09%; viability, T/C [32]: 0.1%; viability, T/C [33]: 0.09%; viability, T/C [34]: 0.23%; viability, T/C [35]: 0.17%
CC(=O)OC12COC1CC(O)C1(C)C(=O)C(O)C3=C(C)C(OC(=O)C(O)C(NC(=O)OC(C)(C)C)c4ccccc4)CC(O)(C(OC(=O)c4ccccc4)C21)C3(C)C (configuration not stated) | – | – | – | – | – | – | – | – | – | – | – | – | – | – | – | – | – | – | – | – | viability, T/C (compound 0.01 µM): 41% [middle of 5 runs]; viability, T/C (compound 0.0316 µM): 36.9% [middle of 5 runs]; viability, T/C (compound 0.1 µM): 36.1% [middle of 5 runs]; viability, T/C (compound 0.316 µM): 39.6% [middle of 5 runs]; viability, T/C (compound 1 µM): 42% [middle of 5 runs]; viability, T/C (compound 3.16 µM): 42.9% [middle of 5 runs]; IC50 (curve of compound): < 10 nM
COc1cc(Nc2ncc3c(n2)-c2ccc(Cl)cc2C(c2c(F)cccc2OC)=NC3)ccc1C(=O)O + C=CC(=O)N1CCN(c2nc(OCC3CCCN3C)nc3c2CCN(c2cccc4cccc(C)c24)C3)CC1CC#N | < 31.6 | < 31.6 | < 31.6 | < 31.6 | 35.7 | 28.9 | 25.1 | 22.3 | 17.4 | 11.7 | 24.4 | 19.5 | 17 | 14.3 | 15 | 11.3 | 20.6 | 15.5 | 16.6 | 16.3 | IC50 (curve of first compound, second compound 0.0316 µM): < 31.6 nM; viability, T/C (second compound 0.0316 µM, first compound 0.0316 µM): 42.7%; viability, T/C (second compound 0.0316 µM, first compound 0.1 µM): 35.9%; viability, T/C (second compound 0.0316 µM, first compound 0.316 µM): 32.6%; viability, T/C (second compound 0.0316 µM, first compound 1 µM): 27.1%; viability, T/C (second compound 0.0316 µM, first compound 3.16 µM): 19.7%; viability, T/C (second compound 0.0316 µM, first compound 10 µM): 14.6%; viability, T/C [22]: 13.9%; viability, T/C [23]: 9.29%; viability, T/C [24]: 10.8%; viability, T/C [25]: 1.27%; viability, T/C [26]: 4.55%; viability, T/C [27]: 7.12%; viability, T/C [28]: 1.43%; viability, T/C [29]: 0.67%
COc1cc(Nc2ncc3c(n2)-c2ccc(Cl)cc2C(c2c(F)cccc2OC)=NC3)ccc1C(=O)O + CNCc1ccccc1-c1csc(C(C)Nc2nc(C)nc3cc(OC)c(OC)cc23)c1 | 274 | 143 | 39.6 | < 31.6 | 69.4 | 57.7 | 44.5 | 43.8 | 30.5 | 19.6 | 59.5 | 54.2 | 42.4 | 37 | 27.3 | 20.3 | 51.4 | 46.3 | 37.3 | 34.6 | IC50 [5]: < 31.6 nM; viability, T/C [22]: 27.4%; viability, T/C [23]: 17.9%; viability, T/C [24]: 15.7%; viability, T/C [25]: 0.89%; viability, T/C [26]: 10.6%; viability, T/C [27]: 4.93%; viability, T/C [28]: 0.62%; viability, T/C [29]: 4.15%; viability, T/C [30]: 0.12%; viability, T/C [31]: 0.2%; viability, T/C [32]: 1.86%; viability, T/C [33]: 0.11%; viability, T/C [34]: 2.34%; viability, T/C [35]: 0.17%
CC(C)NCC(C(=O)N1CCN(c2ncnc3c2C(C)CC3O)CC1)c1ccc(Cl)cc1 (configuration not stated) + COc1cc2nc(C)nc(NC(C)c3cc(N)cc(C(F)(F)F)c3)c2cc1OC1CCOC1 | 649 | 412 | 222 | 416 | 101 | 85.5 | 73 | 38.3 | 9.92 | 6.97 | 92.5 | 85.4 | 58.7 | 21.6 | 7.46 | 6.79 | 91 | 67.8 | 42.8 | 20 | IC50 [5]: < 31.6 nM; viability, T/C [22]: 5.76%; viability, T/C [23]: 3.7%; viability, T/C [24]: 63.1%; viability, T/C [25]: 59.1%; viability, T/C [26]: 64%; viability, T/C [27]: 11.2%; viability, T/C [28]: 6.02%; viability, T/C [29]: 5.53%; viability, T/C [30]: 49.1%; viability, T/C [31]: 33.8%; viability, T/C [32]: 23.7%; viability, T/C [33]: 10.7%; viability, T/C [34]: 8.2%; viability, T/C [35]: 5.6%
